Test results published in ChEMBL document CHEMBL5608241, “Discovery of Novel Non-nucleoside DOT1LR231Q Inhibitors with Improved Pharmacokinetic Properties and Anti-lung Cancer Efficacy” (J Med Chem, 2024).
Activity calls are given as the source filed them. The rule behind the calls is not given here.

Assays:
NCI-H460 [1] = assay: Antiproliferative activity against human NCI-H460 cells harboring DOT1L R231Q mutant (unknown origin) (1 to 416 residues) assessed as inhibition of cell proliferation incubated for 72 hrs by CCK-8 assay; type: functional, cell-based; details: NCI-H460, 72 h
NCI-H460 [2] = assay: Antiproliferative activity against human NCI-H460 cells harboring wildtype DOT1L (unknown origin) (1 to 416 residues) assessed as inhibition of cell proliferation incubated for 72 hrs by CCK-8 assay; type: functional, cell-based; details: NCI-H460, 72 h
NCI-H460 [3] = assay: Potency index, ratio of SGC0946 IC50 to test compound IC50 for antiproliferative activity against human NCI-H460 cells harboring DOT1L R231Q mutant (unknown origin) (1 to 416 residues) assessed as inhibition of cell proliferation incubated for 72 hrs by CCK-8 assay; type: functional
NCI-H460 [4] = assay: Inhibition of DOT1L R231Q mutant (unknown origin) (1 to 416 residues) exogenously expressed in human NCI-H460 cells assessed as reduction in H3K79me2 level at 5 uM by Western blot analysis relative to control; type: cell-based
NCI-H460 [5] = assay: Downregulation of H3K79me2 expression in human NCI-H460 cells exogenously expressing DOT1L R231Q mutant (unknown origin) (1 to 416 residues) at 5 uM by Western blot analysis; type: functional, cell-based
NCI-H460 [6] = assay: Effect on H3K27me3 expression in human NCI-H460 cells exogenously expressing DOT1L R231Q mutant (unknown origin) (1 to 416 residues) at 5 uM by Western blot analysis; type: functional, cell-based
NCI-H460 [7] = assay: Effect on H3K9me2 expression in human NCI-H460 cells exogenously expressing DOT1L R231Q mutant (unknown origin) (1 to 416 residues) at 5 uM by Western blot analysis; type: functional, cell-based
NCI-H460 [8] = assay: Effect on H3K4me1 expression in human NCI-H460 cells exogenously expressing DOT1L R231Q mutant (unknown origin) (1 to 416 residues) at 5 uM by Western blot analysis; type: functional, cell-based
NCI-H460 [9] = assay: Effect on H3K79me2 expression in human NCI-H460 cells exogenously expressing wildtype DOT1L (unknown origin) (1 to 416 residues) at 5 uM by Western blot analysis; type: functional, cell-based
NCI-H460 [10] = assay: Effect on H3K9me2 expression in human NCI-H460 cells exogenously expressing wildtype DOT1L (unknown origin) (1 to 416 residues) at 5 uM by Western blot analysis; type: functional, cell-based
NCI-H460 [11] = assay: Effect on H3K36me2 expression in human NCI-H460 cells exogenously expressing wildtype DOT1L (unknown origin) (1 to 416 residues) at 5 uM by Western blot analysis; type: functional, cell-based
NCI-H460 [12] = assay: Antimigratory activity in human NCI-H460 cells exogenously expressing wildtype DOT1L (unknown origin) (1 to 416 residues) assessed as decrease in number of migrating cells at 5 uM measured after 72 hrs by wound healing assay relative to control; type: functional; design: scale not given: the % may be the effect or the level left
NCI-H460 [13] = assay: Antimigratory activity in human NCI-H460 cells exogenously expressing DOT1L R231Q mutant (unknown origin) (1 to 416 residues) assessed as decrease in number of migrating cells at 5 uM measured after 72 hrs by wound healing assay relative to control; type: functional; design: scale not given: the % may be the effect or the level left
NCI-H460 [14] = assay: Inhibition of sphere formation in human NCI-H460 cells exogenously expressing wildtype DOT1L (unknown origin) (1 to 416 residues) assessed as reduction in self-renewal at 5 uM incubated for 7 to 14 days by inverted microscopic analysis relative to control; type: functional; details: time 7-14 day
NCI-H460 [15] = assay: Inhibition of sphere formation in human NCI-H460 cells exogenously expressing wildtype DOT1L (unknown origin) (1 to 416 residues) assessed as reduction in self-renewal at 2.5 to 5 uM incubated for 7 to 14 days by inverted microscopic analysis; type: functional, cell-based; details: dose 2.5-5 µM, time 7-14 day
NCI-H460 [16] = assay: Inhibition of sphere formation in human NCI-H460 cells exogenously expressing DOT1L R231Q mutant (unknown origin) (1 to 416 residues) assessed as reduction in self-renewal at 2.5 to 5 uM incubated for 7 to 14 days by inverted microscopic analysis; type: functional, cell-based; details: dose 2.5-5 µM, time 7-14 day
NCI-H460 [17] = assay: Antiinvasive activity against human NCI-H460 cells exogenously expressing wildtype DOT1L (unknown origin) (1 to 416 residues) assessed as decrease in number of invading cells at 5 uM incubated for 72 hrs by crystal violet staining based transwell invasion assay relative to control; type: functional; design: scale not given: the % may be the effect or the level left
NCI-H460 [18] = assay: Antiinvasive activity against human NCI-H460 cells exogenously expressing DOT1L R231Q mutant (unknown origin) (1 to 416 residues) assessed as decrease in number of invading cells at 5 uM incubated for 72 hrs by crystal violet staining based transwell invasion assay relative to control; type: functional; design: scale not given: the % may be the effect or the level left
NCI-H460 [19] = assay: Antiinvasive activity against DOT1L knockdown human NCI-H460 cells assessed as decrease in number of invading cells at 2.5 to 5 uM incubated for 72 hrs by crystal violet staining based transwell invasion assay; type: functional, cell-based; details: dose 2.5-5 µM
NCI-H460 [20] = assay: Antitumor activity against human NCI-H460 cells harboring DOT1L R231Q mutant xenografted in male BALB/c-nu mouse model assessed as tumor growth inhibition at 20 mg/kg, ip administered five times a week for 3 weeks relative to control; type: functional; details: NCI-H460, 504 h, read-out: TGI
[21] = Toxicity in male BALB/c-nu mouse model xenografted with human NCI-H460 cells harboring DOT1L R231Q mutant assessed as effect on physical activity at 20 mg/kg, ip administered five times a week for 3 weeks; type: organism-based; details: in vivo, 504 h
[22] = Toxicity in male BALB/c-nu mouse model xenografted with human NCI-H460 cells harboring DOT1L R231Q mutant assessed as effect on body weight at 20 mg/kg, ip administered five times a week for 3 weeks; type: organism-based; details: in vivo, 504 h
[23] = Toxicity in male BALB/c-nu mouse model xenografted with human NCI-H460 cells harboring DOT1L R231Q mutant assessed as effect on spleen viscera index at 20 mg/kg, ip administered five times a week for 3 weeks; type: organism-based; details: in vivo, 504 h
[24] = Cmax in male Sprague-Dawley rat at 20 mg/kg, iv measured after 24 hrs by LC-MS/MS analysis; type: ADME, organism-based; details: in vivo
[25] = AUC (0 to infinity) in male Sprague-Dawley rat at 20 mg/kg, iv measured after 24 hrs by LC-MS/MS analysis; type: ADME, organism-based; details: in vivo
[26] = MRT (0 to infinity) in male Sprague-Dawley rat at 20 mg/kg, iv measured after 24 hrs by LC-MS/MS analysis; type: ADME, organism-based; details: in vivo
[27] = AUC (0 to t) in male Sprague-Dawley rat at 20 mg/kg, ip measured after 24 hrs by LC-MS/MS analysis; type: ADME, organism-based; details: in vivo
[28] = MRT (0 to infinity) in male Sprague-Dawley rat at 20 mg/kg, ip measured after 24 hrs by LC-MS/MS analysis; type: ADME, organism-based; details: in vivo
NCI-H460 [29] = assay: Inhibition of MAPK/ERK signaling pathway in human NCI-H460 cells exogenously expressing wildtype DOT1L (unknown origin) (1 to 416 residues) assessed as decrease in RAF1 expression at 5 uM by Western blot analysis; type: cell-based
NCI-H460 [30] = assay: Inhibition of ERK phosphorylation in human NCI-H460 cells exogenously expressing wildtype DOT1L (unknown origin) (1 to 416 residues) at 5 uM by Western blot analysis; type: cell-based

In the case of CC(C)(C)c1ccc(NC(=O)NCCCN(CCCN2CCOCC2)CC2(O)CCN(c3nc(Cl)nc4sccc34)C2)cc1 (stereo not given), the IC50 (NCI-H460 [1]) is reported as 2.85 µM, the IC50 (NCI-H460 [2]) is reported as 20 µM and the “Ratio IC50” value (NCI-H460 [3]) is reported as 1.3. The inhibition (NCI-H460 [4]) was > 50%, the Activity (NCI-H460 [5]) was “Active” and the Activity (NCI-H460 [6]) was “inactive”. For the same compound, the Activity (NCI-H460 [7]) was “inactive”, the Activity (NCI-H460 [8]) was “inactive” and the Activity (NCI-H460 [9]) was “inactive”. For the same compound, the Activity (NCI-H460 [10]) was “inactive”, the Activity (NCI-H460 [11]) was “inactive” and the Activity (NCI-H460 [12]) was 38.3%. For the same compound, the Activity (NCI-H460 [13]) was 60.4%, the inhibition at 5 µM (NCI-H460 [14]) was 68.9% and the inhibition (NCI-H460 [15]) was “Active”. For the same compound, the inhibition (NCI-H460 [16]) was “Active”, the Activity (NCI-H460 [17]) was 61.5% and the Activity (NCI-H460 [18]) was 77.7%. The Activity (NCI-H460 [19]) was “inactive”, the inhibition in vivo at 20 mg/kg (NCI-H460 [20]) was 60.6% and the Activity [21] was “Non-Toxic”. For the same compound, the Activity [22] was “Non-Toxic”, the Activity [23] was “Non-Toxic” and the Cmax [24] was 3000 ng/mL. For the same compound, the AUC(0-inf) [25] was 6200 ng·h/mL, the MRT inf [26] was 4.41 h and the AUC(0-t) at 24 h [27] was 5280 ng·h/mL. For the same compound, the MRT inf [28] was 5.42 h, the inhibition (NCI-H460 [29]) was “inactive” and the inhibition (NCI-H460 [30]) was “inactive”.
